Source: patent US8754054B2, “Antibacterial compounds, methods of making them, and uses thereof” (Albany Molecular Research, Inc., priority 2010, dated 2014)
≈ marks a conversion by molar mass, not a printed value.

System: MRSA 43300
Test: Antibacterial activity, NCCLS dilution method (Table 9)
Type: cell-based, S. aureus
Conditions: MRSA 43300, dilution method, labels marked a tested as a mixture of diastereomers; for MIC: Staphylococcus aureus, MRSA, read-out: MRSA 43300 MIC
From the text: NCCLS standards for antimicrobial susceptibility testing using the dilution method were followed. See: Performance Standards for Antimicrobial Susceptibility Testing; Fourteenth Informational Supplement. NCCLS Document M100-S14 (ISBN 1-56238-516-X), 2004. NCCLS, 940 West Valley Road, Suite 1400, Wayne, Pa. 19087-1898 USA, 2004; Methods for Dilution Antimicrobial Susceptibility Tests for Bacteria that Grow Aerobically; Approved Standard—Sixth Edition. NCCLS document M7-A6 (IBSBN 1-56238-486-4), NCCLS, 940 West Valley Road, Suite 1400, Wayne, Pa. 19087-1898 USA, 2003, which are hereby incorporated by reference in their entirety.

Compound | MIC [µg/mL] | MRSA 43300 MIC [µg/mL]
COC(=O)c1c(C)cc2c(c1O)[C@]1(O)C(=O)c3cc4c(c(O)c3C(=O)[C@]1(OC)/C(=N/O)C2)C(=O)C=C(N[C@H]1O[C@@H](C)[C@H](OC)/C(=N/O)[C@H]1OC)C4=O [Example 53, (6aS,14aR,E)-Methyl 1,8,14a-trihydroxy-6-(hydroxyimino)-11-((2S,3R,5R,6S,Z)-4-(hydroxyimino)-3,5-dimethoxy-6-methyltetrahydro-2H-pyran-2-ylamino)-6a-methoxy-3-methyl-7,9,12,14-tetraoxo-5,6,6a,7,9,12,14,14a-octahydrobenzo[a]tetracene-2-carboxylate] | 0.12 (≈ 0.166 µM) | 
COC(=O)c1c(C)cc2c(c1OCC(=O)OCc1ccccc1)[C@]1(O)C(=O)c3cc4c(c(O)c3C(=O)[C@]1(OC)[C@H](O)C2)C(=O)C=C(N[C@H]1O[C@@H](C)[C@H](OC)[C@@H](O)[C@H]1OC)C4=O [Example 8, (6R,6aS,14aR)-Methyl 1-(2-(benzyloxy)-2-oxoethoxy)-6,8,14a-trihydroxy-11-((2S,3R,4R,5R,6S)-4-hydroxy-3,5-dimethoxy-6-methyltetrahydro-2H-pyran-2-ylamino)-6a-methoxy-3-methyl-7,9,12,14-tetraoxo-5,6,6a,7,9,12,14,14a-octahydrobenzo[a]tetracene-2-carboxylate] | 1 (≈ 1.18 µM) | 
COC(=O)c1c(C)cc2c(c1O)[C@]1(O)C(=O)c3cc4c(c(O)c3C(=O)[C@]1(OC)[C@H](O)C2)C(=O)C=C(N[C@H]1O[C@@H](C)[C@H](OC)C(=NO)[C@H]1OC)C4=O (single isomer, unassigned) [Example 49] | 0.06 (≈ 0.0844 µM) | 
(6R,6aS,14aR)-Methyl 1,6,8,12,14a-pentahydroxy-11-((2S,3R,4R,5R,6S)-4-hydroxy-3,5-dimethoxy-6-methyltetrahydro-2H-pyran-2-ylamino)-12-((5-(2-hydroxypropyl)furan-3-yl)methyl)-6a-methoxy-3-methyl-7,9,14-trioxo-5,6,6a,7,9,12,14,14a-octahydrobenzo[a]tetracene-2-carboxylate [Example 61] |  | 0.06
CO[C@@H]1[C@@H](O)[C@@H](OC)C(NC2=CC(=O)c3c(cc4c(c3O)C(=O)[C@]3(OC)[C@H](O)Cc5cc(C)c(C(=O)N6CCCCC6)c(O)c5[C@]3(O)C4=O)C2=O)O[C@H]1C (mixture of isomers) [Example 21, (6R,6aS,14aR)-1,6,8,14a-Tetrahydroxy-11-((3R,4R,5R,6S)-4-hydroxy-3,5-dimethoxy-6-methyltetrahydro-2H-pyran-2-ylamino)-6a-methoxy-3-methyl-2-(piperidine-1-carbonyl)-6,6a-dihydrobenzo[a]tetracene-7,9,12,14(5H,14aH)-tetraone] | 1 (≈ 1.33 µM) | 
COC(=O)c1c(C)cc2c(c1O)[C@]1(O)C(=O)c3cc4c(c(O)c3C(=O)[C@]1(OC)[C@H](O)C2)C(=O)C=C(N[C@H]1O[C@@H](C)[C@H](OC)/C(=N/OCC(=O)O)[C@H]1OC)C4=O [Example 51, 2-((Z)-((2S,3R,5R,6S)-3,5-Dimethoxy-2-methyl-6-((6R,6aS,14aR)-1,6,8,14a-tetrahydroxy-6a-methoxy-2-(methoxycarbonyl)-3-methyl-7,9,12,14-tetraoxo-5,6,6a,7,9,12,14,14a-octahydrobenzo[a]tetracen-11-ylamino)-2H-pyran-4(3H,5H,6H)-ylidene)aminooxy)acetic acid] | 8 (≈ 10.4 µM) | 
COC(=O)c1c(C)cc2c(c1O)[C@]1(O)C(=O)c3cc4c(c(O)c3C(=O)[C@]1(OC)[C@H](O)C2)/C(=N/CCCO)C=C(N[C@H]1O[C@@H](C)[C@H](OC)[C@@H](O)[C@H]1OC)C4=O [Example 48, (6R,6aS,14aR,E)-Methyl 1,6,8,14a-tetrahydroxy-11-((2S,3R,4R,5R,6S)-4-hydroxy-3,5-dimethoxy-6-methyltetrahydro-2H-pyran-2-ylamino)-9-(3-hydroxypropylimino)-6a-methoxy-3-methyl-7,12,14-trioxo-5,6,6a,7,9,12,14,14a-octahydrobenzo[a]tetracene-2-carboxylate] | 1 (≈ 1.32 µM) | 
CO[C@@H]1[C@@H](O)[C@@H](OC)C(NC2=CC(=O)c3c(cc4c(c3O)C(=O)[C@]3(OC)[C@H](O)Cc5cc(C)c(C(=O)NC(C)C)c(O)c5[C@]3(O)C4=O)C2=O)O[C@H]1C (mixture of isomers) [Example 31, (6R,6aS,14aR)-1,6,8,14a-Tetrahydroxy-11-((3R,4R,5R,6S)-4-hydroxy-3,5-dimethoxy-6-methyltetrahydro-2H-pyran-2-ylamino)-N-isopropyl-6a-methoxy-3-methyl-7,9,12,14-tetraoxo-5,6,6a,7,9,12,14,14a-octahydrobenzo[a]tetracene-2-carboxamide] | 2 (≈ 2.76 µM) | 
COC(=O)c1c(C)cc2c(c1O)[C@]1(O)C(=O)c3cc4c5c(nc(=O)oc5c3C(=O)[C@]1(OC)[C@H](O)C2)C=C(N[C@H]1O[C@@H](C)[C@H](OC)[C@@H](O)[C@H]1OC)C4=O [Example 60, (8aR,12R,12aS)-8a,12-Dihydroxy-5-((2S,3R,4R,5R,6S)-4-hydroxy-3,5-dimethoxy-6-methyltetrahydro-2H-pyran-2-ylamino)-12a-methoxy-8a,9,10,11,12,12a-hexahydro-(1-hydroxy-2-methoxycarbonyl-3-methylbenzo) [9,10-a]tetraceno[1,12-de][1,3]oxazine-2,6,8,13-tetraone] | 0.12 to 0.5 (≈ 0.166 to 0.692 µM) | 
COC(=O)c1c(C)c(Br)c2c(c1O)[C@]1(O)C(=O)c3cc4c(c(O)c3C(=O)[C@]1(OC)[C@H](O)C2)C(=O)C=C(N[C@H]1O[C@@H](C)[C@H](OC)[C@@H](O)[C@H]1OC)C4=O [Example 38, (6R,6aS,14aR)-Methyl 4-bromo-1,6,8,14a-tetrahydroxy-11-((2S,3R,4R,5R,6S)-4-hydroxy-3,5-dimethoxy-6-methyltetrahydro-2H-pyran-2-ylamino)-6a-methoxy-3-methyl-7,9,12,14-tetraoxo-5,6,6a,7,9,12,14,14a-octahydrobenzo[a]tetracene-2-carboxylate] | 1 (≈ 1.29 µM) | 
COC(=O)c1c(C)cc2c(c1O)[C@]1(O)C(=O)c3cc4c(c(O)c3C(=O)[C@]1(OC)[C@H](O)C2)C(=O)C=C(N[C@H]1O[C@@H](C)[C@H](OC)[C@@H](O)[C@H]1OC)C4(O)c1ccc(F)cc1 (single isomer, unassigned) [Example 58] | 8 to 16 (≈ 10.1 to 20.2 µM) | 
CO[C@@H]1[C@@H](O)[C@@H](OC)[C@@H](NC2=CC(=O)c3c(cc4c(c3O)C(=O)[C@]3(OC)[C@H](O)Cc5cc(C)c(C(=O)OCC(C)C)c(O)c5[C@]3(O)C4=O)C2=O)O[C@H]1C [Example 36] | 0.12 (≈ 0.162 µM) | 
CCOC(=O)CCC1(O)C(N[C@H]2O[C@@H](C)[C@H](OC)[C@@H](O)[C@H]2OC)=CC(=N)c2c1cc1c(c2O)C(=O)[C@]2(OC)[C@H](O)Cc3cc(C)c(C(=O)OC)c(O)c3[C@]2(O)C1=O (stereo partly drawn) [Example 59, (6R,6aS,14aR)-methyl 12-(3-ethoxy-3-oxopropyl)-1,6,8,12,14a-pentahydroxy-11-((2S,3R,4R,5R,6S)-4-hydroxy-3,5-dimethoxy-6-methyltetrahydro-2H-pyran-2-ylamino)-9-imino-6a-methoxy-3-methyl-7,14-dioxo-5,6,6a,7,9,12,14,14a-octahydrobenzo[a]tetracene-2-carboxylate] | 32 (≈ 40.1 µM) | 
